Assays:
deoxycytidine deaminase = test system: deoxycytidine deaminase; design: method as in PMID 16807468; conditions: cited from earlier work
[1] = test system: patients with solid tumors; test: Adverse events graded by CTCAE version 3.0, relatedness by investigator; type: in vivo, human; conditions: for Patients discontinuing treatment with the drug because of adverse events: all cohorts
Experimental: Cohort enrollment could be expanded to ensure that at least 6 evaluable patients were enrolled or in the event of unresolved safety, pharmacokinetic, or other concerns. The overall sample size could be further increased if additional dose cohorts were considered justified based on the results from the dose-escalation portion of the study. For continuous endpoints, the mean, standard error or standard deviation (SD); median; 25th and 75th percentiles; and minimum and maximum were calculated. For discrete data, the frequency and percent distributions were calculated. No formal comparisons between cohorts were performed. The data were analyzed using SAS software version 8.2 (SAS Institute, Cary, NC). […] The safety analysis set included all patients who received at least 1 dose of study therapy.

clinical = conditions: for Tmax: Median tmax
Experimental: Plasma concentrations of motesanib were analyzed using a validated liquid chromatography/tandem mass spectrometry (LC-MS/MS) method with a lower limit of quantitation (LLOQ) of 0.2 ng/mL (Cedra Corp., Austin, TX).
Pharmacokinetic parameter estimates were calculated according to standard noncompartmental methods using WinNonlin software (version 5.1.1; Pharsight Corporation, Mountain View, CA) and summarized by dose level. […] For the BID cohort, AUC0—24 values for motesanib were determined by 2 × AUC0—12. The terminal elimination rate constant (λZ) was determined by linear regression of the natural logarithms of plasma concentrations versus time during the terminal phase; the corresponding t1/2 was calculated.
The GLSM were calculated by first obtaining the least squares means for the log-transformed Cmax values (logCmax) and AUC0—24 values (logAUC0—24) for weeks 3 and 2, and then converting these values back to the original scale. The ratio and 90% confidence interval (CI) of GLSM was calculated by first estimating the difference (and 90% CI) in the least squares means between weeks 3 and 2 for logCmax and logAUC0—24, and then converting the numbers back to their original scale.

[2] = test system: cytochrome P450 (CYP) 3A4; conditions: cited from earlier work
[3] = test system: patients with advanced NSCLC; conditions: cited from earlier work
CYP1A2 = conditions: cited from earlier work
[4] = 56 patients who received erlotinib

SMILES | Metabolism by deoxycytidine deaminase (deoxycytidine deaminase) | Patients discontinuing treatment with the drug because of adverse events [1] [n] | Mean t1/2, z (clinical; human, in vivo, 100 mg) [h] | half-life (clinical; human, in vivo, 100 mg, Mean t1/2, z) [h] | Tmax (clinical; human, in vivo, 100 mg) [h] | Median tmax (clinical; human, in vivo, 150 mg) [h] | Tmax (clinical; human, in vivo, 150 mg) [h] | Overall median tmax (clinical; week 3, 100 mg erlotinib QD with gemcitabine and motesanib) [h] | Metabolism by CYP3A4 [2] | Progression-free survival ([3]; phase 3, advanced NSCLC after failed first-line therapy) [mo] | Response rate ([3]; phase 3, P = 0.006) [%] | Overall survival ([3]; phase 3) [mo] | Erlotinib-related anorexia [1, 4] [n] | Erlotinib-related diarrhea [1, 4] [n] | Erlotinib-related fatigue [1, 4] [n] | Erlotinib-related nausea [1, 4] [n] | Erlotinib-related rash [1, 4] [n] | Erlotinib-related vomiting [1, 4] [n] | Incidence of erlotinib-related skin rash ([1]; present study, all patients) [%] | Metabolism by CYP1A2 (CYP1A2)
Nc1ccn([C@@H]2O[C@H](CO)[C@@H](O)C2(F)F)c(=O)n1 [gemcitabine, reference compound] | primarily metabolized | 8 | – | – | – | – | – | – | – | – | – | – | – | – | – | – | – | – | – | –
C#Cc1cccc(Nc2ncnc3cc(OCCOC)c(OCCOC)cc23)c1 [erlotinib] | – | 7 | 12 to 19 | 17 to 33 | 2 to 6 | 2 to 4 | 1 to 3 | 2 | metabolized at least in part | 1.7 | 6.2 | 9.2 | 16 | 35 | 14 | 23 | 42 | 15 | 75 | metabolized at least in part
